# Test results taken from US7273866B2, “2-aryl thiazole derivatives as KCNQ modulators” (Bristol-Myers Squibb Company, priority 2002, dated 2007).
# Legend:
# [1] = tested on: peripheral mononeuropathy nerve injury-induced tactile allodynia; experiment: Chung model of neuropathic pain (Chung surgery and von Frey test); format: in vivo, Sprague Dawley rats; conditions: 10 mg/kg, i.v.; von Frey thresholds over 90 min, rat
# Description: Chung model of neuropathic pain (Chung surgery and von Frey test). To test agents for activity against peripheral mononeuropathy nerve injury-induced tactile allodynia, male Sprague Dawley rats (wt. 120-160 g) were surgically prepared with unilateral tight ligation of spinal nerves L5 and L6 following the method of Kim and Chung (Kim S. H., Chung J. M. (1992) Pain, September; 50(3):355-63). After 3-4 weeks recovery, paw withdrawal to light touch was assessed as described by Chaplan et al. (Chaplan S. R., et al., (1994) J. Neurosci Methods, July; 53(1):55-63). […] After acclimation, baseline von Frey thresholds were assessed for the injured hindpaw at −15 min. […] Following drug administration, von Frey thresholds were measured at 15, 30, 60 and 90 min. Data were analyzed by a 2-way repeated measures analysis of variance followed by Dunnett's test (p<0.05). […]
# Reversal of neuropathic pain behavior may be expressed as a percentage (0-100%) of the maximum possible effect, over and above the vehicle effects. […]
# For example, a compound which immediately reversed neuropathic pain behavior to normal levels, such that animals only responded to the highest von Frey filament (15 g), and maintained normal levels through out the post-drug testing period (90 min) would be calculated as Δ% MPE=100%.
# [2] = tested on: systemic polyneuropathy nerve injury-induced tactile allodynia; experiment: Diabetic model of neuropathic pain (Streptozoticin & von Frey test); format: in vivo, Sprague Dawley rats; conditions: 10 mg/kg, i.v.; STZ diabetic rats, von Frey thresholds over 90 min
# Description: Diabetic model of neuropathic pain (Streptozoticin & von Frey test). To test agents for activity against systemic polyneuropathy nerve injury-induced tactile allodynia, animals were treated with streptozoticin (STZ) to create a diabetic condition by selective cytotoxic action upon pancreatic β-islet cells that produce insulin following the method of Courteix, et al. (Courteix C., et al., (1993) Pain, April; 53(1):81-8). In brief, male Sprague Dawley rats (wt. 200-275 g) received an injection of STZ (75 mg/kg, i.p.) and diabetes was confirmed three weeks after STZ injection by measurement of tail vein blood glucose levels. After 3-4 weeks, paw withdrawal to light touch was assessed as described by Chaplan et al. (Chaplan S. R., et al., (1994) J Neurosci Methods, July; 53(1):55-63). In brief, rats are placed in a plastic cage with a wire mesh bottom and allowed to acclimate for 15-30 minutes, until cage exploration and grooming stops. […] After acclimation, baseline von Frey thresholds were assessed for the injured hindpaw at −15 min. […] Following drug administration, von Frey thresholds were measured at 15, 30, 60 and 90 min. Data were analyzed by a 2-way repeated measures analysis of variance followed by Dunnett's test (p<0.05). […]
smiles,measurement,setting,value
"CC(NC(=O)c1sc(-c2ccccc2F)nc1C(F)(F)F)c1cccc(OC(F)(F)F)c1 (centres unmarked) [Example 21, 2-(2-fluorophenyl)-4-(trifluoromethyl)-N-[1-[3-(trifluoromethoxy)phenyl]ethyl]-5-thiazolecarboxamide]",AUC (Δ % MPE),[1],"28 (10 mg/kg, i.v.) Δ % MPE"
same,AUC (Δ % MPE),[2],"28 (10 mg/kg, i.v.) Δ % MPE"
